Measurements published in article PMC12298827, “Subchronic Toxicities of Four Per- and Polyfluoroalkyl Substances (PFASs) by Oral Exposure in Sprague–Dawley Rats” (Toxics, 2025).

Tested on: male and female Sprague–Dawley rats
Experiment: 90-day subchronic oral gavage toxicity study
Assay type: in vivo, rat
Conditions: female
Procedure: Subchronic (90-day) studies were performed in accordance with current U.S. EPA’s Toxic Substances Control Act Good Laboratory Practice (GLP) Standards, with the following two general exceptions to the GLP guidelines: Analysis of the dose formulations was conducted according to RTI-approved Standard Operating Procedures, and corn oil (the vehicle) was not characterized (certificate of analysis from the vendor is available in the appendices to the final reports). Male and female Sprague–Dawley rats (five dose levels plus a control, n = 10/sex/dose group, corn oil vehicle dose volume of 3 mL/kg; oral gavage) were used in these studies, and the rats were euthanized on SD 91. The dose levels for PFHI were 0, 12.5, 25, 50, 100, and 200 mg/kg-day. The dose levels for MHFPK were 0, 18.8, 37.5, 75, 150, and 300 mg/kg-day. The dose levels for PFNAC were 0, 0.1, 0.3, 1.0, 3.0, and 10 mg/kg-day for male rats and 0, 0.3, 1.0, 3.0, 10, and 30 mg/kg-day for female rats. For CTFPA, the dose levels were 0, 1.9, 3.8. 7.5, 15, and 30 mg/kg-day for male rats and 0, 6.3, 12.5, 25, 50, and 100 mg/kg-day for female rats. For each PFAS, three batches of dosing solution were prepared. The time between the batch preparation of the dosing solutions ranged between 29 and 39 days. Blood samples were collected from all the rats at termination for serum chemistry, hematology, coagulation, and the analysis of the parent PFAS chemical in the plasma. In vivo data collection and further detail on the endpoints examined postmortem are described below.
The rats were observed twice daily for morbidity and mortality throughout the study period. At least once prior to randomization to test groups and weekly thereafter, the rats were physically examined, and bodyweights were obtained. Feed consumption was quantified weekly starting on SD 1.
Neurotoxicity was evaluated using the functional observational battery (FOB) and measuring locomotor activity (LMA) 2–4 h post dosing on SDs 78–80 and 80–84, respectively. For both the 14- and 90-day studies, an ophthalmologic examination was conducted prior to randomization and near the end of the study, using indirect ophthalmoscopy and slit–lamp biomicroscopy (as needed) after the administration of a mydriatic solution.
Hematology, biochemistry, and coagulation endpoints were measured at the termination of the study. A Siemens Advia 2120i hematology analyzer (Siemens Healthineers, Erlangen, Germany) was used to measure (or calculate) the parameters related to the complete blood count, leukocyte differential count, and reticulocyte count. The hematology parameters are listed and described in Table 2. The prothrombin time […] and activated partial thromboplastin time (APTT) were measured using an Instrumentation Laboratory (Bedford, MA, USA) ACL Elite Pro coagulation analyzer (laser–nephelometric centrifugal method).
At necropsy, the rats were visually examined for external abnormalities and organ weights (absolute and relative to the BW and brain weight), which were recorded (paired organs weighed together). The tissues were preserved in 10% neutral buffered formalin (NBF), except for the ocular tissues, testes, and epididymides, which were preserved in modified Davidson’s fixative and later transferred to 10% NBF. Bone marrow smears were prepared from the femurs, and the slides were air-dried, fixed in methanol, stained, and stored at room temperature for possible future evaluation. The preserved tissues were embedded in paraffin, sectioned, stained with hematoxylin and eosin, and examined by a board-certified veterinary pathologist.
Statistical analysis was performed using Provantis™ Version 10 or greater (Instem LSS, Limited; Stone, Staffordshire, UK). Differences among the treatment groups compared to the control were evaluated using one-way analysis of variance (ANOVA) if the underlying assumptions of a normal distribution (Shapiro–Wilk test) and the homogeneity of the variance (Levene’s test) were satisfied. […]

Q: What does the source list for `CC(=O)C(F)(F)C(F)(F)C(F)(F)F` [MHFPK, Methyl heptafluoropropyl ketone]?
A: % Diff, % BW Gain (75 mg/kg-day): 4.28%; % Diff, Total BW change (75 mg/kg-day): 4.15%; % Diff, Total Food Consumed (75 mg/kg-day): 4.34%; A/G (75 mg/kg-day): 1.27±0.60 ratio; ABEOS (75 mg/kg-day): 0.090±0.027 K/µL; ABNEUT (75 mg/kg-day): 1.005±0.441 K/µL; ABRETi (75 mg/kg-day): 193.71±46.37 10^9/L; ALB (75 mg/kg-day): 4.45 ± 0.91 g/dL; ALPi (75 mg/kg-day): 55.0±18.5 U/L; APTT (75 mg/kg-day): 18.68 s; BUN (75 mg/kg-day): 16.5 ± 2.1 mg/dL; CHOL (75 mg/kg-day): 99.1 ± 21.5 mg/dL; GLOB (75 mg/kg-day): 3.85 ± 0.96 g/dL; GLUC (75 mg/kg-day): 159.0 ± 32.6 mg/dL; HCT (75 mg/kg-day): 45.88±1.35%; HGB (75 mg/kg-day): 14.40 ± 0.50 g/dL; Kidney Weight (75 mg/kg-day): 1.91 g; Kidney/Body Weight (75 mg/kg-day): 0.59%; Kidney/Brain Weight (75 mg/kg-day): 96.8%; Liver Weight (75 mg/kg-day): 8.53 g; Liver/Body Weight (75 mg/kg-day): 2.62%; Liver/Brain Weight (75 mg/kg-day): 432%; MPV (75 mg/kg-day): 8.55 ± 0.75 fL; PT (75 mg/kg-day): 14.74 s; RBC (75 mg/kg-day): 7.823±0.340 M/µL; Total BW change (75 mg/kg-day): 94.83 g; Total Food Consumed (75 mg/kg-day): 1522 g; % BW Gain (150 mg/kg-day): 37.70%; % Diff, % BW Gain (150 mg/kg-day): -0.15%; % Diff, Total BW change (150 mg/kg-day): -0.78%; % Diff, Total Food Consumed (150 mg/kg-day): 5.76%; A/G (150 mg/kg-day): 1.14±0.34 ratio; ABEOS (150 mg/kg-day): 0.093±0.035 K/µL; ABNEUT (150 mg/kg-day): 1.175±0.584 K/µL; ABRETi (150 mg/kg-day): 193.46±35.08 10^9/L; ALB (150 mg/kg-day): 4.37 ± 0.51 g/dL; ALPi (150 mg/kg-day): 47.5±8.8 U/L; APTT (150 mg/kg-day): 21.76 s; BUN (150 mg/kg-day): 18.2 ± 2.9 mg/dL; CHOL (150 mg/kg-day): 104.3 ± 20.7 mg/dL; GLOB (150 mg/kg-day): 4.00 ± 0.81 g/dL; GLUC (150 mg/kg-day): 166.7 ± 26.3 mg/dL; HCT (150 mg/kg-day): 45.40±1.55%; HGB (150 mg/kg-day): 14.27 ± 0.54 g/dL; Kidney Weight (150 mg/kg-day): 1.84 g; Kidney/Body Weight (150 mg/kg-day): 0.57%; Kidney/Brain Weight (150 mg/kg-day): 95.8%; Liver Weight (150 mg/kg-day): 8.84 g; Liver/Body Weight (150 mg/kg-day): 2.74%; Liver/Brain Weight (150 mg/kg-day): 462%; MPV (150 mg/kg-day): 8.84 ± 0.70 fL; PT (150 mg/kg-day): 14.99 s; RBC (150 mg/kg-day): 7.731±0.255 M/µL; Total BW change (150 mg/kg-day): 90.34 g; Total Food Consumed (150 mg/kg-day): 1542 g; % BW Gain (300 mg/kg-day): 39.88%; % Diff, % BW Gain (300 mg/kg-day): 5.61%; % Diff, Total BW change (300 mg/kg-day): 5.11%; % Diff, Total Food Consumed (300 mg/kg-day): 7.99%; A/G (300 mg/kg-day): 1.01±0.13 ratio; ABEOS (300 mg/kg-day): 0.085±0.022 K/µL; ABNEUT (300 mg/kg-day): 1.220±0.506 K/µL; ABRETi (300 mg/kg-day): 181.86±36.58 10^9/L; ALB (300 mg/kg-day): 4.15 ± 0.28 g/dL; ALPi (300 mg/kg-day): 54.1±22.2 U/L; APTT (300 mg/kg-day): 22.79 s; BUN (300 mg/kg-day): 17.6 ± 4.5 mg/dL; CHOL (300 mg/kg-day): 107.5 ± 21.4 mg/dL; GLOB (300 mg/kg-day): 4.16 ± 0.64 g/dL; GLUC (300 mg/kg-day): 151.4 ± 28.6 mg/dL; HCT (300 mg/kg-day): 48.02±1.91%; HGB (300 mg/kg-day): 14.98 ± 0.42 g/dL; Kidney Weight (300 mg/kg-day): 1.94 g; Kidney/Body Weight (300 mg/kg-day): 0.59%; Kidney/Brain Weight (300 mg/kg-day): 97.1%; Liver Weight (300 mg/kg-day): 8.59 g; Liver/Body Weight (300 mg/kg-day): 2.63%; Liver/Brain Weight (300 mg/kg-day): 430%
